ChEMBL document CHEMBL1122447, “2-Acetylpyridine thiosemicarbazones. 5. 1-[1-(2-Pyridyl)ethyl]-3-thiosemicarbazides as potential antimalarial agents” (1983)

Experiments:
[1] = system: Plasmodium berghei; assay: Antimalarial activity against Plasmodium berghei infected mice (Mus musculus) at 320 mg/kg; toxic in 5 of 5; format: functional, organism-based; parameters: dose 320 mg/kg
[2] = system: Plasmodium berghei; assay: Antimalarial activity against Plasmodium berghei in mice (Mus musculus) at 40 mg/kg; toxic in 3 of 5; format: functional, organism-based; parameters: dose 40 mg/kg
[3] = system: Plasmodium berghei; assay: Increased mean survival time in drug-sensitive Plasmodium berghei infected mice (Mus musculus) at 20 mg/kg dose; format: functional
[4] = system: Plasmodium berghei; assay: Increased mean survival time in drug-sensitive Plasmodium berghei infected mice (Mus musculus) at 40 mg/kg; active; format: functional
[5] = system: Plasmodium berghei; assay: Antimalarial activity against Plasmodium berghei infected mice (Mus musculus) at 640 mg/kg; toxic in 5 of 5; format: functional, organism-based; parameters: dose 640 mg/kg
[6] = system: Plasmodium berghei; assay: Antimalarial activity against Plasmodium berghei infected mice (Mus musculus) at 160 mg/kg; toxic in 3 of 5; format: functional, organism-based; parameters: dose 160 mg/kg
[7] = system: Plasmodium berghei; assay: Antimalarial activity as increased MST in Plasmodium berghei infected mice (Mus musculus) at 40 mg/kg; Toxic in 1 of 5; format: functional
[8] = system: Plasmodium berghei; assay: Antimalarial activity as increased MST in Plasmodium berghei infected mice (Mus musculus) at 20 mg/kg; format: functional
[9] = system: Plasmodium berghei; assay: Antimalarial activity as increased MSTin Plasmodium berghei infected mice (Mus musculus) at 640 mg/kg; Toxic in 3 of 5; format: functional
[10] = system: Plasmodium berghei; assay: Antimalarial activity as increased MST in Plasmodium berghei infected mice (Mus musculus) at 160 mg/kg; format: functional
[11] = system: Plasmodium berghei; assay: Antimalarial activity as increased MST in Plasmodium berghei infected mice (Mus musculus) at 40 mg/kg; format: functional
[12] = system: Plasmodium berghei; assay: Increase in mean survival time in drug-sensitive Plasmodium berghei infected mice (Mus musculus) at 160 mg/kg dose; cured 1 of 5; format: functional, organism-based; parameters: dose 160 mg/kg
[13] = system: Plasmodium berghei; assay: Increased mean survival time in drug-sensitive Plasmodium berghei infected mice (Mus musculus) at 640 mg/kg; cured 3 of 5; format: functional, organism-based; parameters: dose 640 mg/kg
[14] = system: Plasmodium berghei; assay: Increased mean survival time in drug-sensitive Plasmodium berghei infected mice (Mus musculus) at 40 mg/kg dose; format: functional
[15] = system: Plasmodium berghei; assay: Increased mean survival time in drug-sensitive Plasmodium berghei in mice (Mus musculus) at 80 mg/kg dose; format: functional
[16] = system: Plasmodium berghei; assay: Increased mean survival time in drug-sensitive Plasmodium berghei infected mice (Mus musculus) at 320 mg/kg; cured 2 of 5; format: functional, organism-based; parameters: dose 320 mg/kg
[17] = system: Plasmodium berghei; assay: Increased mean survival time in drug-sensitive Plasmodium berghei infected mice (Mus musculus) at 80 mg/kg; cures 4 of 5; format: functional, organism-based; parameters: dose 80 mg/kg
[18] = system: Plasmodium berghei; assay: Increased mean survival time in drug-sensitive Plasmodium berghei infected mice (Mus musculus) at 160 mg/kg; cured 3 of 5; format: functional, organism-based; parameters: dose 160 mg/kg
[19] = system: Plasmodium berghei; assay: Increased mean survival time in drug-sensitive Plasmodium berghei infected mice (Mus musculus) at 640 mg/kg; cured 2 of 5; format: functional, organism-based; parameters: dose 640 mg/kg
[20] = system: Plasmodium berghei; assay: Increased mean survival time in drug-sensitive Plasmodium berghei infected mice (Mus musculus) at 160 mg/kg; cured 1 of 5; format: functional, organism-based; parameters: dose 160 mg/kg
[21] = system: Plasmodium berghei; assay: Increased mean survival time in drug-sensitive Plasmodium berghei infected mice (Mus musculus) at 320 mg/kg; cured 3 of 5; format: functional, organism-based; parameters: dose 320 mg/kg
[22] = system: Plasmodium berghei; assay: Increased mean survival time in drug-sensitive Plasmodium berghei infected mice (Mus musculus) at 320 mg/kg; cured 5 of 5; format: functional, organism-based; parameters: dose 320 mg/kg
[23] = system: Plasmodium berghei; assay: Increased mean survival time in drug-sensitive Plasmodium berghei infected mice (Mus musculus) at 80 mg/kg; cured 1 of 5; format: functional, organism-based; parameters: dose 80 mg/kg
[24] = system: Plasmodium berghei; assay: Increased mean survival time in drug-sensitive Plasmodium berghei infected mice (Mus musculus) at 640 mg/kg; cured 5 of 5; format: functional, organism-based; parameters: dose 640 mg/kg
[25] = system: Plasmodium berghei; assay: Increased mean survival time in drug-sensitive Plasmodium berghei infected mice (Mus musculus) at 640 mg/kg; toxic in 5 of 5; format: functional, organism-based; parameters: dose 640 mg/kg
[26] = system: Plasmodium berghei; assay: Increased mean survival time in drug-sensitive Plasmodium berghei infected mice (Mus musculus) at 40 mg/kg; toxic in 2 of 5; format: functional, organism-based; parameters: dose 40 mg/kg
[27] = system: Plasmodium berghei; assay: Increased mean survival time in drug-sensitive Plasmodium berghei infected mice (Mus musculus) at 160 mg/kg; toxic in 5 of 5; format: functional, organism-based; parameters: dose 160 mg/kg
[28] = system: Plasmodium berghei; assay: Antimalarial activity against Plasmodium berghei infected mice (Mus musculus) at 160 mg/kg; cured 1 of 5; format: functional, organism-based; parameters: dose 160 mg/kg
[29] = system: Plasmodium berghei; assay: Antimalarial activity against Plasmodium berghei infected mice (Mus musculus) at 40 mg/kg; cured 1 of 5; format: functional, organism-based; parameters: dose 40 mg/kg
[30] = system: Plasmodium berghei; assay: Increased mean survival time in drug-sensitive Plasmodium berghei infected mice (Mus musculus) at 20 mg/kg; cured 1 of 5; format: functional, organism-based; parameters: dose 20 mg/kg
[31] = system: Plasmodium berghei; assay: Increased mean survival time in drug-sensitive Plasmodium berghei infected mice (Mus musculus) at 160 mg/kg; cured 5 of 5; format: functional, organism-based; parameters: dose 160 mg/kg
[32] = system: Plasmodium berghei; assay: Increased mean survival time in drug-sensitive Plasmodium berghei infected mice (Mus musculus) at 320 mg/kg dose; format: functional
[33] = system: Plasmodium berghei; assay: Increased mean survival time in drug-sensitive Plasmodium berghei infected mice (Mus musculus) at 640 mg/kg; toxic in 4 of 5; format: functional
[34] = system: Plasmodium berghei; assay: Increased mean survival time in drug-sensitive Plasmodium berghei infected mice (Mus musculus) at 80 mg/kg; cured 3 of 5; format: functional, organism-based; parameters: dose 80 mg/kg
[35] = system: Plasmodium berghei; assay: Increased mean survival time in drug-sensitive Plasmodium berghei infected mice (Mus musculus) at 40 mg/kg; cured 3 of 5; format: functional, organism-based; parameters: dose 40 mg/kg
[36] = system: Plasmodium berghei; assay: Antimalarial activity against Plasmodium berghei infected mice (Mus musculus) at 160 mg/kg; toxic in 1 of 5; format: functional, organism-based; parameters: dose 160 mg/kg
[37] = system: Plasmodium berghei; assay: Antimalarial activity against Plasmodium berghei infected mice (Mus musculus) at 320 mg/kg; toxic in 2 of 5; format: functional, organism-based; parameters: dose 320 mg/kg
[38] = system: Plasmodium berghei; assay: Antimalarial activity against Plasmodium berghei infected mice (Mus musculus) at 20 mg/kg; toxic in 1 of 5; format: functional, organism-based; parameters: dose 20 mg/kg
[39] = system: Plasmodium berghei; assay: Increased mean survival time in drug-sensitive Plasmodium berghei infected mice (Mus musculus) at 80 mg/kg; active; format: functional
[40] = system: Plasmodium berghei; assay: Antimalarial activity against Plasmodium berghei infected mice (Mus musculus) at 80 mg/kg; toxic in 1 of 5; format: functional, organism-based; parameters: dose 80 mg/kg
[41] = system: Plasmodium berghei; assay: Antimalarial activity against Plasmodium berghei infected mice (Mus musculus) at 320 mg/kg; toxic in 3 of 5; format: functional, organism-based; parameters: dose 320 mg/kg
[42] = system: Plasmodium berghei; assay: Increased mean survival time in drug-sensitive Plasmodium berghei infected mice (Mus musculus) at 20 mg/kg; cured 3 of 5; format: functional, organism-based; parameters: dose 20 mg/kg
[43] = system: Plasmodium berghei; assay: Increased mean survival time in drug-sensitive Plasmodium berghei infected mice (Mus musculus) at 160 mg/kg; cured 2 of 5; format: functional, organism-based; parameters: dose 160 mg/kg
[44] = system: Plasmodium berghei; assay: Increased mean survival time in drug-sensitive Plasmodium berghei infected mice (Mus musculus) at 80 mg/kg; cured 5 of 5; format: functional, organism-based; parameters: dose 80 mg/kg
[45] = system: Plasmodium berghei; assay: Increased mean survival time in drug-sensitive Plasmodium berghei infected mice (Mus musculus) at 40 mg/kg; cured 4 of 5; format: functional, organism-based; parameters: dose 40 mg/kg

SMILES: CCOC(=O)N1CCN(/C(S)=N/NC(C)c2ccccn2)CC1 (stereo not drawn)
- Survival time [1]: Toxic in 5 of 5 mice
- Survival time [2]: Toxic in 3 of 5 mice
- Survival time [3]: 5.9 days
- Survival time [4]: 7.2 days
- Survival time [5]: Toxic in 5 of 5 mice
- Survival time [6]: Toxic in 5 of 5 mice

SMILES: CC(N/N=C(\S)N(C)C)c1ccccn1 (stereo not drawn)
- Survival time [7]: 3.2 days
- Survival time [1]: Toxic in 5 of 5 mice
- Survival time [8]: 2 days
- Survival time [5]: Toxic in 5 of 5 mice

SMILES: CC(N/N=C(\S)NCc1ccccc1)c1ccccn1 (stereo not drawn)
- Survival time [9]: 2.4 days
- Survival time [10]: 0.7 days
- Survival time [11]: -0.1 days

SMILES: C/C(=N\N=C(/[SeH])N1CC2CCC(CC2)C1)c1ccccn1
- Survival time [12]: Cured 1 of 5 mice
- Survival time [13]: Cured 3 of 5 mice
- Survival time [14]: 0.8 days
- Survival time [15]: 5.9 days
- Survival time [3]: -0.1 days
- Survival time [16]: Cured 2 of 5 mice

SMILES: C/C(=N\NC(=S)N1CCCCCC1)c1ccccn1
- Survival time [17]: Cured 4 of 5 mice
- Survival time [18]: Cured 3 of 5 mice; toxic in 1 of 5 mice
- Survival time [14]: 6.2 days
- Survival time [19]: Cured 2 of 5 mice; toxic in 3 of 5 mice
- Survival time [16]: Cured 2 of 5 mice; toxic in 2 of 5 mice

SMILES: CC(N/N=C(\[SeH])N1CCCCCC1)c1ccccn1 (stereo not drawn)
- Survival time [20]: Cured 1 of 5 mice
- Survival time [14]: 5.9 days
- Survival time [15]: 6.1 days
- Survival time [3]: 0.3 days
- Survival time [19]: Cured 2 of 5 mice; toxic in 2 of 5 mice
- Survival time [21]: Cured 3 of 5 mice; toxic in 2 of 5 mice

SMILES: C/C(=N\N=C(/S)N1CCC(c2ccccc2)CC1)c1ccccn1
- Survival time [18]: Cured 3 of 5 mice
- Survival time [14]: 0.4 days
- Survival time [22]: Cured 5 of 5 mice
- Survival time [23]: Cured 1 of 5 mice
- Survival time [24]: Cured 5 of 5 mice

SMILES: CCOC(=O)N1CCN(/C(S)=N/N=C(\C)c2ccccn2)CC1
- Survival time [25]: Toxic in 5 of 5 mice
- Survival time [26]: Cured 2 of 5 mice; toxic in 2 of 5 mice
- Survival time [27]: Toxic in 5 of 5 mice

SMILES: CC1CCN(/C(S)=N/NC(C)c2ccccn2)CC1 (stereo not drawn)
- Survival time [28]: Cured 1 of 5 mice
- Survival time [5]: Toxic in 5 of 5 mice
- Survival time [29]: Cured 1 of 5 mice
- Survival time [6]: Toxic in 3 of 5 mice

SMILES: C/C(=N\N=C(/S)N1CC2CCC(CC2)C1)c1ccccn1
- Survival time [30]: Cured 1 of 5 mice
- Survival time [31]: Cured 5 of 5 mice
- Survival time [32]: 0.2 days
- Survival time [33]: 0.4 days
- Survival time [34]: Cured 3 of 5 mice
- Survival time [35]: Cured 3 of 5 mice

SMILES: CC(N/N=C(\S)N(C)C1CCCCC1)c1ccccn1 (stereo not drawn)
- Survival time [36]: Toxic in 1 of 5 mice
- Survival time [37]: Cured 2 of 5 mice
- Survival time [18]: Cured 3 of 5 mice
- Survival time [38]: Toxic in 1 of 5 mice
- Survival time [14]: 3.7 days
- Survival time [3]: 2.9 days
- Survival time [39]: 7.1 days
- Survival time [40]: Toxic in 1 of 5 mice
- Survival time [41]: Toxic in 3 of 5 mice

SMILES: C/C(=N\NC(=S)N1CCN(c2ccccn2)CC1)c1ccccn1
- Survival time [42]: Cured 3 of 5 mice
- Survival time [43]: Cured 2 of 5 mice
- Survival time [25]: Toxic in 5 of 5 mice
- Survival time [44]: Cured 5 of 5 mice
- Survival time [32]: 0.7 days
- Survival time [45]: Cured 4 of 5 mice
